According to ChEMBL document CHEMBL3727348, “3-(aryl or heteroaryl) methyleneindolin-2-one derivatives as inhibitors of cancer stem cell pathway kinases for the treatment of cancer” (2014):

Test system: FaDu
Experiment: Cytotoxic activity against human FADU bulk cells incubated for 72 hrs by Cell-titer-Glo luminescence assay
Format: functional, cell-based
Conditions: not given

| Structure (SMILES) | IC50 [µM] |
| --- | --- |
| CCN(CC)CCNC(=O)c1c(C)[nH]c(/C=C2\C(=O)Nc3ccc(-c4ccnn4-c4ccccc4)cc32)c1C | 3.01 |
| Cc1[nH]c(/C=C2\C(=O)Nc3ccc(-c4cnn(-c5ccccn5)c4)cc32)c(C)c1C(=O)NCCN1CCCC1 | 2.53 |

Test system: A549
Experiment: Cytotoxic activity against human A549 bulk cells incubated for 72 hrs by Cell-titer-Glo luminescence assay
Format: functional, cell-based
Conditions: A549, 72 h

| Structure (SMILES) | IC50 [µM] |
| --- | --- |
| CCN(CC)CCNC(=O)c1c(C)[nH]c(/C=C2\C(=O)Nc3ccc(-c4ccnn4-c4ccccc4)cc32)c1C | 2.94 |
| Cc1[nH]c(/C=C2\C(=O)Nc3ccc(-c4cnn(-c5ccccn5)c4)cc32)c(C)c1C(=O)NCCN1CCCC1 | 2.53 |

Test system: ACHN
Experiment: Cytotoxic activity against human ACHN bulk cells incubated for 72 hrs by Cell-titer-Glo luminescence assay
Format: functional, cell-based
Conditions: not given

| Structure (SMILES) | IC50 [µM] |
| --- | --- |
| CCN(CC)CCNC(=O)c1c(C)[nH]c(/C=C2\C(=O)Nc3ccc(-c4ccnn4-c4ccccc4)cc32)c1C | 6.57 |
| Cc1[nH]c(/C=C2\C(=O)Nc3ccc(-c4cnn(-c5ccccn5)c4)cc32)c(C)c1C(=O)NCCN1CCCC1 | 1.64 |

Test system: FaDu
Experiment: Cytotoxic activity against human FADU cancer stem cells incubated for 72 hrs by Cell-titer-Glo luminescence assay
Format: functional, cell-based
Conditions: not given

| Structure (SMILES) | IC50 [µM] |
| --- | --- |
| CCN(CC)CCNC(=O)c1c(C)[nH]c(/C=C2\C(=O)Nc3ccc(-c4ccnn4-c4ccccc4)cc32)c1C | 3.46 |
| Cc1[nH]c(/C=C2\C(=O)Nc3ccc(-c4cnn(-c5ccccn5)c4)cc32)c(C)c1C(=O)NCCN1CCCC1 | 1.65 |

Test system: A549
Experiment: Cytotoxic activity against human A549 cancer stem cells incubated for 72 hrs by Cell-titer-Glo luminescence assay
Format: functional, cell-based
Conditions: A549, 72 h

| Structure (SMILES) | IC50 [µM] |
| --- | --- |
| CCN(CC)CCNC(=O)c1c(C)[nH]c(/C=C2\C(=O)Nc3ccc(-c4ccnn4-c4ccccc4)cc32)c1C | 5.54 |
| Cc1[nH]c(/C=C2\C(=O)Nc3ccc(-c4cnn(-c5ccccn5)c4)cc32)c(C)c1C(=O)NCCN1CCCC1 | 11.7 |

Test system: ACHN
Experiment: Cytotoxic activity against human ACHN cancer stem cells incubated for 72 hrs by Cell-titer-Glo luminescence assay
Format: functional, cell-based
Conditions: not given

| Structure (SMILES) | IC50 [µM] |
| --- | --- |
| CCN(CC)CCNC(=O)c1c(C)[nH]c(/C=C2\C(=O)Nc3ccc(-c4ccnn4-c4ccccc4)cc32)c1C | 1.17 |
| Cc1[nH]c(/C=C2\C(=O)Nc3ccc(-c4cnn(-c5ccccn5)c4)cc32)c(C)c1C(=O)NCCN1CCCC1 | 0.22 |

Target: Serine/threonine-protein kinase RIO2 (Homo sapiens) (UniProt Q9BVS4)
Sequence (Q9BVS4 whole entry, looked up, the tested form may be a part): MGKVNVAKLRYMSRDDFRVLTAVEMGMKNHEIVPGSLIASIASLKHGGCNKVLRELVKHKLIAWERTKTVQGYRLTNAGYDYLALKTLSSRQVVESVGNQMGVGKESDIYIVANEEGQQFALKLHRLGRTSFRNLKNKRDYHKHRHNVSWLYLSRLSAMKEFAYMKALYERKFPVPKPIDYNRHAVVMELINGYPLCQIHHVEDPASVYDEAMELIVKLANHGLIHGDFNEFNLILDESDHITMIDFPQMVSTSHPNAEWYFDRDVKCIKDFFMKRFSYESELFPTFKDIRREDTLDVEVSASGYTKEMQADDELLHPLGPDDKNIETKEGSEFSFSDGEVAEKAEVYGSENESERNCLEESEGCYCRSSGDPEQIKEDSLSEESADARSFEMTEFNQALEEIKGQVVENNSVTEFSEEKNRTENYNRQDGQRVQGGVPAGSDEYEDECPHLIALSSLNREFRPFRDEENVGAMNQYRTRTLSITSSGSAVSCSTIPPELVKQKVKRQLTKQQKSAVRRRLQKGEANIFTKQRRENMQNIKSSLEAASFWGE
Experiment: Inhibition of N-terminal GST-fused full length human recombinant RIOK2 expressed in baculovirus Sf21 cells assessed as reduction in kinase auto-phosphorylation at 1 uM in presence of ATP incubated for 1 hr by ELISA method
Conditions: not given

| inhibition [%] | Structure (SMILES) |
| --- | --- |
| 42 | CCN(CC)CCNC(=O)c1c(C)[nH]c(/C=C2\C(=O)Nc3ccc(-c4cnn(-c5ncccn5)c4)cc32)c1C |
| 18 | CCN(CC)CCNC(=O)c1c(C)[nH]c(/C=C2\C(=O)Nc3ccc(-c4ccnn4-c4ccc(Cl)c(Cl)c4)cc32)c1C |
| 51 | CCN(CC)CCNC(=O)c1c(C)[nH]c(/C=C2\C(=O)Nc3ccc(-c4ccnn4-c4cccc(OC)c4)cc32)c1C |
| -7 | CCOCCCNC(=O)c1c(C)[nH]c(/C=C2\C(=O)Nc3ccc(-c4cnn(-c5ccccc5)c4)cc32)c1C |
| 9 | Cc1[nH]c(/C=C2\C(=O)Nc3ccc(-c4cnn(-c5ccccc5)c4)cc32)c(C)c1C(=O)NC[C@H]1CCCN1 |
| 4 | CCN(CC)CCNC(=O)c1c(C)[nH]c(/C=C2\C(=O)Nc3ccc(-c4cnn(-c5ccccc5Cl)c4)cc32)c1C |
| 26 | CCN(CC)CCNC(=O)c1c(C)[nH]c(/C=C2\C(=O)Nc3ccc(-c4cnn(-c5ccc(S(N)(=O)=O)cc5)c4)cc32)c1C |
| 18 | CCN(CC)CCNC(=O)c1c(C)[nH]c(/C=C2\C(=O)Nc3ccc(-c4cnn(-c5nccs5)c4)cc32)c1C |
| 55 | CCN(CC)CCNC(=O)c1c(C)[nH]c(/C=C2\C(=O)Nc3ccc(-c4ccnn4-c4ccccc4)cc32)c1C |
| 53 | Cc1[nH]c(/C=C2\C(=O)Nc3ccc(-c4cnn(-c5ccccn5)c4)cc32)c(C)c1C(=O)NCCN1CCCC1 |

Target: Serine/threonine-protein kinase RIO2 (Homo sapiens) (UniProt Q9BVS4)
Experiment: Inhibition of N-terminal GST-fused full length human recombinant RIOK2 expressed in baculovirus Sf21 cells assessed as reduction in kinase auto-phosphorylation at 10 uM in presence of ATP incubated for 1 hr by ELISA method
Conditions: not given

| inhibition [%] | Structure (SMILES) |
| --- | --- |
| 112 | CCN(CC)CCNC(=O)c1c(C)[nH]c(/C=C2\C(=O)Nc3ccc(-c4cnn(-c5ncccn5)c4)cc32)c1C |
| 87 | CCN(CC)CCNC(=O)c1c(C)[nH]c(/C=C2\C(=O)Nc3ccc(-c4ccnn4-c4ccc(Cl)c(Cl)c4)cc32)c1C |
| 98 | CCN(CC)CCNC(=O)c1c(C)[nH]c(/C=C2\C(=O)Nc3ccc(-c4ccnn4-c4cccc(OC)c4)cc32)c1C |
| 43 | CCOCCCNC(=O)c1c(C)[nH]c(/C=C2\C(=O)Nc3ccc(-c4cnn(-c5ccccc5)c4)cc32)c1C |
| 126 | Cc1[nH]c(/C=C2\C(=O)Nc3ccc(-c4cnn(-c5ccccc5)c4)cc32)c(C)c1C(=O)NC[C@H]1CCCN1 |
| 99 | CCN(CC)CCNC(=O)c1c(C)[nH]c(/C=C2\C(=O)Nc3ccc(-c4cnn(-c5ccccc5Cl)c4)cc32)c1C |
| 71 | CCN(CC)CCNC(=O)c1c(C)[nH]c(/C=C2\C(=O)Nc3ccc(-c4cnn(-c5ccc(S(N)(=O)=O)cc5)c4)cc32)c1C |
| 111 | CCN(CC)CCNC(=O)c1c(C)[nH]c(/C=C2\C(=O)Nc3ccc(-c4cnn(-c5nccs5)c4)cc32)c1C |
| 100 | CCN(CC)CCNC(=O)c1c(C)[nH]c(/C=C2\C(=O)Nc3ccc(-c4ccnn4-c4ccccc4)cc32)c1C |
| 91 | Cc1[nH]c(/C=C2\C(=O)Nc3ccc(-c4cnn(-c5ccccn5)c4)cc32)c(C)c1C(=O)NCCN1CCCC1 |

Target: AMP-activated protein kinase, AMPK (Homo sapiens) (UniProt P54646+O43741+P54619+Q9UGJ0+Q9Y478+Q13131+Q9UGI9)
Experiment: Inhibition of AMPK in human HeLa cells assessed as kinase phosphorylation level at 5 uM incubated for 6 hrs by SDS-PAGE based chemiluminescence assay
Format: cell-based
Parameters: scale not given: the % may be the effect or the level left
Conditions: not given

| Activity [%] | Structure (SMILES) |
| --- | --- |
| 52 | Cc1[nH]c(/C=C2\C(=O)Nc3ccc(-c4cnn(-c5ccccn5)c4)cc32)c(C)c1C(=O)NCCN1CCCC1 |

Target: T1, Ribosomal protein S6 kinase (Homo sapiens) (UniProt P51812+Q9UBS0+O75676+Q15349+O75582+P23443+Q9UK32+Q15418)
Experiment: Inhibition of RPS6 kinase in human HeLa cells assessed as p-RPS6 Ser235/236 phosphorylation level at 5 uM incubated for 6 hrs by SDS-PAGE based chemiluminescence assay
Format: cell-based
Parameters: scale not given: the % may be the effect or the level left
Conditions: not given

| Activity [%] | Structure (SMILES) |
| --- | --- |
| 82 | Cc1[nH]c(/C=C2\C(=O)Nc3ccc(-c4cnn(-c5ccccn5)c4)cc32)c(C)c1C(=O)NCCN1CCCC1 |

Target: T1, Ribosomal protein S6 kinase (Homo sapiens)
Experiment: Inhibition of RPS6 kinase in human HeLa cells assessed as p-RPS6 Ser240/244 phosphorylation level at 5 uM incubated for 6 hrs by SDS-PAGE based chemiluminescence assay
Format: cell-based
Parameters: scale not given: the % may be the effect or the level left
Conditions: not given

| Activity [%] | Structure (SMILES) |
| --- | --- |
| 92 | Cc1[nH]c(/C=C2\C(=O)Nc3ccc(-c4cnn(-c5ccccn5)c4)cc32)c(C)c1C(=O)NCCN1CCCC1 |
